From ChEMBL document CHEMBL5329203, “Target discovery of bioactive natural products with native-compound-coupled CNBr-activated Sepharose 4B beads (NCCB): Applications, mechanisms and outlooks” (Bioorg Med Chem, 2023)
pKd: −log10 of the molar value.

Assays:
[1] = target: Tyrosine-protein kinase Fyn (Homo sapiens, UniProt P06241); experiment: Binding affinity to Fyn (unknown origin) assessed as dissociation constant
[2] = target: Small ribosomal subunit protein uS2 (Homo sapiens, UniProt P08865); experiment: Binding affinity to His-tagged Laminin receptor in human A549 cells assessed as dissociation constant by surface plasmon resonance assay
[3] = target: T1, Latent membrane protein 1 (Human herpesvirus 4 (strain B95-8), UniProt P03230); experiment: Binding affinity to Epstein Barr virus LMP1 assessed as dissociation constant; parameters: species or system human gammaherpesvirus 4
T1 sequence (P03230 whole entry): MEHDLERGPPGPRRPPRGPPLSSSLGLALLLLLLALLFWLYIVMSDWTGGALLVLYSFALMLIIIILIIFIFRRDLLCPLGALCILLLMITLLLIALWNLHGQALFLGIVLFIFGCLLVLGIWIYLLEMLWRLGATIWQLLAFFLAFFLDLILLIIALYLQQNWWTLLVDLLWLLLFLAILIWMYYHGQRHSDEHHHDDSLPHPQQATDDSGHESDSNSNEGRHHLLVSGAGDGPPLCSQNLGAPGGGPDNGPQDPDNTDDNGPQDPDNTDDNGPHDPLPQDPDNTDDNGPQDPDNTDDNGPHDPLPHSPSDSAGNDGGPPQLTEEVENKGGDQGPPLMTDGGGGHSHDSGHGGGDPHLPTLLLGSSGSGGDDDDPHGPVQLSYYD

Chain of Tyrosine-protein kinase Fyn (P06241 whole entry): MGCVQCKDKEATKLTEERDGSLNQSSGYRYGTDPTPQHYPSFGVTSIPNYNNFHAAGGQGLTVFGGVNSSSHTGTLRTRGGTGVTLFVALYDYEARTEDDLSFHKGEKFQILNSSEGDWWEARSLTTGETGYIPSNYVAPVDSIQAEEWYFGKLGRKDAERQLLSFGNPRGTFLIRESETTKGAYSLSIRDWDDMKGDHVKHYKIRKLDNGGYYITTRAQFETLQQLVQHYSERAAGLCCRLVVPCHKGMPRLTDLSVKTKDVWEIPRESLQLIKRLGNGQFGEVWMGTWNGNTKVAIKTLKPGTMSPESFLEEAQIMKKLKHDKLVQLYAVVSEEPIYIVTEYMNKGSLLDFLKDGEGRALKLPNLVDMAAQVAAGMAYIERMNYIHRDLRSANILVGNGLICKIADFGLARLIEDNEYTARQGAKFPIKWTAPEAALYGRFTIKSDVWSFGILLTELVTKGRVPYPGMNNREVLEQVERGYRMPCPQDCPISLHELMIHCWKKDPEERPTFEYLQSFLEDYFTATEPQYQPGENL

O=C(O[C@@H]1Cc2c(O)cc(O)cc2O[C@@H]1c1cc(O)c(O)c(O)c1)c1cc(O)c(O)c(O)c1 [EPIGALOCATECHIN GALLATE]
pKd [1]: 6.44
pKd [2]: 7.40
pKd [3]: 6.44
